The subject of one data set is Cryptococcus neoformans. Nature of the data set: Antifungal activity against Cryptococcus neoformans ATCC 90112 after 48 to 72 hrs by broth microdilution method. The note with it: Cryptococcus neoformans, ATCC 90112; read-out: MIC. The class given is functional. On the technique in general: In broth dilution the organism is exposed to a series of concentrations in liquid medium.

For another data set, the system named is Candida albicans. Nature of the data set: Antifungal activity against Candida albicans ATCC 10231 after 48 to 72 hrs by broth microdilution method. It counts as functional. The note with it: Candida albicans, ATCC 10231; read-out: MIC.
Data set [1] in a line: Inhibition of phospholipid fatty acyl chain hydrolysis activity of Cryptococcus neoformans var. grubii H99 PLB assessed as formation of radiolabeled free fatty acid at pH 4 by radiometric assay.
A further data set concerns A549. Nature of the data set: Cytotoxicity against human A549 cells after 3 hrs by MTS assay. It counts as cell-based. The note with it: A549, 3 h.
For data set [2], the system named is Cryptococcus neoformans var. grubii H99. Nature of the data set: Inhibition of lysophospholipid fatty acyl chain hydrolysis activity of Cryptococcus neoformans var. grubii H99 PLB assessed as formation of radiolabeled free fatty acid at 0.25 to 250 uM at pH 4 by radiometric assay.
In the next data set the test system is MDCK. Nature of the data set: Cytotoxicity against MDCK cells after 3 hrs by MTS assay. Conditions: Canis lupus familiaris. It counts as cell-based. For orientation: Tetrazolium dyes change colour on reduction, which living cells bring about.
Data set [3] concerns Cryptococcus neoformans var. grubii H99. Nature of the data set: Inhibition of lysophospholipase acyltransferase activity of Cryptococcus neoformans var. grubii H99 PLB assessed as formation of radiolabeled dipalmitoyl phosphatidylcholine at 0.25 to 250 uM at pH 4 by radiometric assay.
Data set [4] addresses Phospholipase A2, major isoenzyme (Sus scrofa, UniProt P00592). Nature of the data set: Inhibition of porcine pancreatic PLA2 after 1 hr by radiometric method.
The nature of data set [5]: Cytotoxicity against human erythrocytes assessed as hemolysis after 1 hr. It counts as cell-based, Erythrocyte.

The source made the active and inactive calls. The calls are words filed in the database; no cut-off is given here. A value given as a limit tells only on which side of the number the result lay.

As usually defined, the MIC is the lowest concentration found to suppress growth. In general, IC50 refers to the concentration at which inhibition is half-maximal. What is called HC50 is the concentration giving 50% haemolysis.

Chain of Phospholipase A2, major isoenzyme (P00592 whole entry): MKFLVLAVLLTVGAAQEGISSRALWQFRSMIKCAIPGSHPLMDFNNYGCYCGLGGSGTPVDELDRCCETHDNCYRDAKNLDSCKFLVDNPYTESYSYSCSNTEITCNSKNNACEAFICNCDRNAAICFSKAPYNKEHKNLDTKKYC

Take `c1ccc(Cc2cc[n+](CCCCCCCCCCCC[n+]3ccc(Cc4ccccc4)cc3)cc2)cc1`: the minimal inhibitory concentration (MIC) is 22 µM in the data set with Cryptococcus neoformans and 11 µM in the data set with Candida albicans.

As to `Cc1cc[n+](CCCCCCCCCCCC[n+]2ccc(C)cc2)cc1`, the half-maximal inhibitory concentration (IC50) in data set [1] was more than 250 µM; in the data set with A549, more than 350 µM; with MDCK, more than 350 µM; in [4], more than 250 µM. For the same compound, the result in data set [2] and in data set [3] was inactive. The results for the MIC in the data set with Cryptococcus neoformans and in the data set with Candida albicans were 88 µM and 22 µM, respectively.

Consider `OCCCc1cc[n+](CCCCCCCCCCCC[n+]2ccc(CCCO)cc2)cc1`, for which the half-maximal inhibitory concentration (IC50) is more than 250 µM in data set [1], more than 350 µM with A549, more than 350 µM in the data set on MDCK and more than 250 µM in data set [4]. The outcome in [2] and in data set [3] was inactive. Moreover, the 50% haemolytic concentration (HC50) at 1 h in data set [5] is more than 350 µM. In addition, the MIC with Cryptococcus neoformans and in the data set on Candida albicans was 88 µM throughout.

Consider `CCCCCCCCc1cc[n+](CCCCCCCCCCCC[n+]2ccc(CCCCCCCC)cc2)cc1`, for which, in [5], the 50% haemolytic concentration (HC50) at 1 h was determined as 98 µM. The minimal inhibitory concentration (MIC) in the data set on Cryptococcus neoformans and in the data set on Candida albicans was 2.7 µM throughout.

With `CCCc1cc[n+](CCCCCCCCCCCC[n+]2ccc(CCC)cc2)cc1`, the minimal inhibitory concentration (MIC) with Cryptococcus neoformans came out at 44 µM; with Candida albicans it was 11 µM.

As to `CCCCC(CCCC)c1cc[n+](CCCCCCCCCCCC[n+]2ccc(C(CCCC)CCCC)cc2)cc1`, the IC50 in data set [1] came to 5 µM; with A549 it was 55 µM; in the data set with MDCK, 56 µM; in [4] it was 53 µM. In addition, the outcome in data set [2] and in data set [3] was inactive. In data set [5], the HC50 at 1 h came out at 124 µM. Besides, the minimal inhibitory concentration (MIC) with Cryptococcus neoformans and with Candida albicans was 1.4 µM each time.

With `CCCCCc1cc[n+](CCCCCCCCCCCC[n+]2ccc(CCCCC)c(C)c2)cc1C`, the IC50 in data set [1] was found to be 8 µM; with A549, 122 µM; in the data set with MDCK, 145 µM; in data set [4], 134 µM. For the same compound, the result in data set [2] and in data set [3] was inactive. Moreover, in data set [5], the concentration for 50% haemolysis (HC50) at 1 h was more than 350 µM. Further, the MIC with Cryptococcus neoformans is 1.4 µM; in the data set on Candida albicans, 2.7 µM.

Consider `C=CCCCc1cc[n+](CCCCCCCCCCCC[n+]2ccc(CCCC=C)cc2)cc1`, for which the IC50 was 47 µM in [1], more than 350 µM with A549, more than 350 µM in the data set on MDCK and 56 µM in [4]. The result in [2] and in data set [3] was inactive. Besides, the 50% haemolytic concentration (HC50) at 1 h in data set [5] is more than 350 µM. For the same compound, the MIC in the data set with Cryptococcus neoformans is 5.5 µM; in the data set with Candida albicans it was 2.7 µM.

`CC(C)CCc1cc[n+](CCCCCCCCCCCC[n+]2ccc(CCC(C)C)cc2)cc1`: the IC50 in data set [1] was 57 µM; in the data set with A549, more than 350 µM; in the data set with MDCK, more than 350 µM; in data set [4], 67 µM. Moreover, the outcome in data set [2] and in data set [3] was inactive. In addition, in [5], the HC50 at 1 h is more than 350 µM. Further, the MIC in the data set with Cryptococcus neoformans is 2.7 µM; with Candida albicans it was 5.5 µM.

Take `CCCCCc1cc[n+](CCCCCCCCCCCC[n+]2ccc(CCCCC)cc2)cc1` [listing 1 of 2 here]: the result in data set [2] and in data set [3] was inactive.

As for `OCc1cc[n+](CCCCCCCCCCCC[n+]2ccc(CO)cc2)cc1`, the MIC with Cryptococcus neoformans and with Candida albicans was 88 µM throughout.

In the case of `CCCCCc1cccc[n+]1CCCCCCCCCCCC[n+]1ccccc1CCCCC`, the IC50 was more than 350 µM in the data set with A549 and 315 µM with MDCK. In data set [5], the 50% haemolytic concentration (HC50) at 1 h was more than 350 µM. For the same compound, the MIC in the data set on Cryptococcus neoformans and in the data set on Candida albicans was 2.7 µM each time.

In the case of `CCCCCc1ccc[n+](CCCCCCCCCCCC[n+]2cccc(CCCCC)c2)c1`, the concentration for 50% haemolysis (HC50) at 1 h in [5] is more than 350 µM. Further, the minimum inhibitory concentration (MIC) turned out to be 11 µM with Cryptococcus neoformans and 5.5 µM in the data set with Candida albicans.

`CCCCCc1cc[n+](CCCCCCCCCCCC[n+]2ccc(CCCCC)cc2)cc1` [listing 2 of 2 here]: the MIC in the data set on Cryptococcus neoformans turned out to be 1.4 µM; with Candida albicans, 2.7 µM.

Take `CC(C)c1cc[n+](CCCCCCCCCCCC[n+]2ccc(C(C)C)cc2)cc1`: the IC50 in the data set on A549 and with MDCK was more than 350 µM throughout. Moreover, the minimal inhibitory concentration (MIC) amounted to 44 µM with Cryptococcus neoformans and 22 µM in the data set with Candida albicans.

Regarding `CCc1ccc[n+](CCCCCCCCCCCC[n+]2cccc(CC)c2)c1`, the minimal inhibitory concentration (MIC) in the data set on Cryptococcus neoformans was found to be 88 µM; in the data set on Candida albicans, 44 µM.

With `c1cc[n+](CCCCCCCCCCCC[n+]2ccccc2)cc1`, the IC50 in data set [1] and in data set [4] was more than 250 µM each time. Also, the outcome in [2] and in data set [3] was inactive. Also, the HC50 at 1 h in [5] is more than 350 µM. Also, the MIC turned out to be 88 µM in the data set with Cryptococcus neoformans and 44 µM with Candida albicans.

`CC(C)(C)c1cc[n+](CCCCCCCCCCCC[n+]2ccc(C(C)(C)C)cc2)cc1`: the 50% inhibitory concentration (IC50) in data set [1] is 34 µM; with A549 it was more than 350 µM; with MDCK, more than 350 µM; in [4], more than 250 µM. Further, the result in [2] and in data set [3] was inactive. For the same compound, the concentration for 50% haemolysis (HC50) at 1 h in data set [5] is more than 350 µM. Moreover, the MIC amounted to 11 µM in the data set on Cryptococcus neoformans and 22 µM with Candida albicans.

As for `CC(C)(C)CCc1cc[n+](CCCCCCCCCCCC[n+]2ccc(CCC(C)(C)C)cc2)cc1`, the figures for the concentration for half-maximal inhibition (IC50) with A549 and in the data set on MDCK were 105 µM and 135 µM, respectively. Besides, the HC50 at 1 h in data set [5] is more than 350 µM. Moreover, the minimum inhibitory concentration (MIC) in the data set on Cryptococcus neoformans worked out at 2.7 µM; with Candida albicans it was 5.5 µM.

With `CCCCCCc1cc[n+](CCCCCCCCCCCC[n+]2ccc(CCCCCC)cc2)cc1`, the half-inhibitory concentration (IC50) in data set [1] was 6 µM; in the data set with A549, 48 µM; in the data set with MDCK it was 61 µM; in data set [4] it was more than 250 µM. The result in data set [2] and in [3] was inactive. In addition, the concentration for 50% haemolysis (HC50) at 1 h in [5] is 129 µM. Moreover, the MIC is 2.7 µM in the data set on Cryptococcus neoformans and 1.4 µM in the data set on Candida albicans.

Consider `CC(C)CCCc1cc[n+](CCCCCCCCCCCC[n+]2ccc(CCCC(C)C)cc2)cc1`, for which the IC50 was 11 µM in data set [1], 54 µM in the data set with A549, 62 µM in the data set on MDCK and more than 250 µM in data set [4]. In addition, the outcome in [2] and in data set [3] was inactive. Also, the 50% haemolytic concentration (HC50) at 1 h in data set [5] came to 227 µM. The minimal inhibitory concentration (MIC) with Cryptococcus neoformans and with Candida albicans was 2.7 µM each time.

In the case of `CCc1cc[n+](CCCCCCCCCCCC[n+]2ccc(CC)cc2)cc1`, the IC50 was 138 µM in data set [1], more than 350 µM with A549, more than 350 µM in the data set on MDCK and more than 250 µM in [4]. Moreover, the result in data set [2] and in data set [3] was inactive. Also, the results for the MIC in the data set on Cryptococcus neoformans and in the data set with Candida albicans were 44 µM and 11 µM, respectively.

For `CCCCc1cc[n+](CCCCCCCCCCCC[n+]2ccc(CCCC)cc2)cc1`, the results for the 50% inhibitory concentration (IC50) in the data set on A549 and in the data set on MDCK were 215 µM and 150 µM, respectively. Further, the 50% haemolytic concentration (HC50) at 1 h in [5] was more than 350 µM. The MIC with Cryptococcus neoformans was 11 µM; in the data set on Candida albicans, 5.5 µM.

In the case of `CCCCC(CCCC)c1cc[n+](CCCCCCCCCCCC[n+]2ccc(C(CCCC)CCCC)c(C)c2)cc1C`, the IC50 in the data set with A549 and in the data set with MDCK was 10 µM throughout. Moreover, the HC50 at 1 h in data set [5] was determined as 31 µM. Further, the MIC in the data set with Cryptococcus neoformans and in the data set on Candida albicans was 2.7 µM each time.

Values taken from ChEMBL document CHEMBL1152529, “Synthesis, antifungal, haemolytic and cytotoxic activities of a series of bis(alkylpyridinium)alkanes” (Bioorg Med Chem, 2009).
